# Source: patent US7230033B2, “Pest control compositions and methods for their use” (United States of America as represented by the Secretary of …, priority 2000, dated 2007)
# What was measured:
# [1] = system: ticks, fleas, and mosquitoes; test: Pesticidal activity against all three arthropods, general statements (Examples 9, 17); format: in vivo; conditions: 24 hours exposure; initial screenings
# Description: Concentrations of the compounds were prepared by 2-fold serial dilutions of a 0.5% (wt:vol) solution of the extracts in acetone (see, e.g., Panella et al., J. Med. Entomol., 42(3):352-358, 2005). The approximate toxicity of individual compounds and compounds in combination was determined with a total of 8 doses ranging from 0.002% to 0.25%. […] A control treated with acetone only was run with each series. Tick and flea susceptibility was evaluated using a modification of the disposable pipette method of Barnard et al. (J. Econ. Entomol., 74:466–69, 1981) and Maupin and Piesman (J. Med. Entomol., 31:319–321, 1994).
# (§1) Briefly, groups of 10 nymphal I. scapularis and X. cheopis fleas were used in all tests (more than a total of 5,240 nymphs and 4,860 fleas were exposed to the compounds). The inner surface of 2-dram friction cap vials were treated with the compound/acetone solution, or acetone only as a control, and left to air-dry overnight (see also, Panella et al., J. Med. Entomol., 42(3):352-358, 2005. Three to 4 holes were made in the plastic cap to allow for air exchange. Nymphal ticks and adult fleas were then placed directly into the vials using forceps. Vials containing ticks or fleas were placed in desiccators for 24 h at 21° C. and 90% RH. Morbidity and mortality was recorded at 1, 2, 4, 8, and 24 h after initial exposure.
# Adult mosquitoes were tested using the bottle bioassay method of Brogden and McAllister (J. Am. Mosq. Control Assoc., 14:159–64, 1998) with minor modifications. Natural product extracts were two-fold serially diluted for a total of 8 concentrations ranging from 0.002% to 0.25% in 1.5 ml of acetone. Individual dilutions were added to 250 ml Wheaton glass bottles and capped. Bottles were manipulated to evenly coat all inner surfaces. The caps were removed and bottles were allowed to air-dry overnight. […] Morbidity and mortality were recorded at 15, 30, 45, and 60 min and 24 hour intervals. […] The dose-mortality data was evaluated with probit analysis, using the LdP Line software, to determine LC50 and LC90 values.
# [2] = system: adult Xenopsylla cheopis fleas; test: Treated-vial biocidal screening with 2% acetone solutions (Example 2), adult fleas, residual; format: in vivo; conditions: treated vials sat 5 wk; arthropods added for the final 24 h
# Description: (§2) Samples of the compounds listed below were obtained as described in Example 1, and screened for biocidal activities against nymphal Ixodes scapularis. In this example, 2% acetone solutions (wt/vol) of the compounds were applied to inner surfaces of 2-dram friction cap vials. Vials and caps were treated then allowed to dry for a minimum of 4 hours before placing 10 nymphs in each container. These same vials were used to challenge additional nymphs and adult I. scapularis ticks and adult Xenopsylla cheopis fleas through five weeks to observe any possible residual activity.
# (§3) Numbers in parentheses refer to length of treatment in terms of hours (h) or weeks (wk). Data is presented in terms of number killed/number tested. For test periods longer than 24 hours, the treated vials were allowed to sit for the stated period after drying (72 h, 4 wk, or 5 wk) and each group of arthropods was added to the vials for the final 24 h of the test period.
# [3] = system: adult I. scapularis ticks; test: Treated-vial biocidal screening with 2% acetone solutions (Example 2), adult ticks, residual; format: in vivo, Ixodes scapularis; conditions: treated vials sat 4 wk; arthropods added for the final 24 h
# Description: as §2, §3
# [4] = system: nymphal Ixodes scapularis; test: Treated-vial biocidal screening with 2% acetone solutions (Example 2), tick nymphs; format: in vivo; conditions: treated vials sat 72 h; arthropods added for the final 24 h
# Description: as §2, §3
# Ae. aegypti adults = test: Adult mosquito bottle bioassay; format: in vivo, Aedes aegypti; conditions: for Slope: probit
# Description: (§4) Adult mosquitoes were tested using the bottle bioassay method of Brogden and McAllister (J. Am. Mosq. Control Assoc., 14:159–64, 1998) with minor modifications. Natural product extracts were two-fold serially diluted for a total of 8 concentrations ranging from 0.002% to 0.25% in 1.5 ml of acetone. Individual dilutions were added to 250 ml Wheaton glass bottles and capped. Bottles were manipulated to evenly coat all inner surfaces. The caps were removed and bottles were allowed to air-dry overnight. Once bottles were completely dry, 10–50 (in some tests 25–50) adult mosquitoes were aspirated into the bottles. Mosquitoes were held in the bottles for 24 h at 23° C. and 85% RH. Morbidity and mortality were recorded at 15, 30, 45, and 60 min and 24 hour intervals. One bottle for each replicate was treated with acetone only and served as a control. The dose-mortality data was evaluated with probit analysis, using the LdP Line software, to determine LC50 and LC90 values.
# Carvacrol was combined with compound 7, 9, or 10 at a 1:1 ratio (7.5 μl of carvacrol:7.5 μl of compound 7, 9, or 10 was added to 2,985 μl of acetone for a 0.5% solution, from which serial dilutions were made), and tested as previously described against nymphal ticks and adult and larval mosquitoes.
# Ixodes scapularis nymphs = test: Residual activity, aged treated vials, ticks; format: in vivo; conditions: for LC90, residual activity: NE = not effective
# Description: as §1
# [5] = system: ticks, fleas, and mosquitoes; test: Residual activity, general statements (Examples 9, 17); format: in vivo; conditions: ticks
# [6] = system: fourth-instar Aedes aegypti larvae; test: Larval mosquito bioassay; format: in vivo; conditions: Aedes aegypti larval mosquitoes; concentration of the 1 ml added to 150 ml water
# Description: Individual groups of 10 fourth-instar Aedes aegypti larvae were contained in 150 ml of water and exposed to […] of essential oils prepared by 2-fold serial dilutions ranging from 0.06%–5.0% in 1 ml of acetone. A control group of larvae were exposed to 1 ml of acetone only.
# It is important to note that larval mosquitoes are tested in their natural environment, i.e., in water. The particular assays used herein involved groups of 10 larval mosquitoes in 150 ml of water. The weight percentages reported for lethal concentration for larval mosquitoes are the weight percentages added to the 150 ml water (as opposed to the final percentage of the tested compound(s) in the 150 ml water). As one of skill in the art will appreciate, test compound(s) added to a volume of water (such as, 150 ml) can be dramatically diluted depending upon the water solubility of the tested compound. […] If the tested compound is an oil (such as, carvacrol, nootkatone, or 13-hydroxy-valencene), it most likely floats on the surface of the water.
# [7] = system: Xenopsylla cheopis adults; test: Residual activity, aged treated vials, fleas; format: in vivo
# Description: as §1
# X. cheopis adults = test: Flea bioassay, treated 2-dram vials, probit analysis; format: in vivo, Xenopsylla cheopis; conditions: 24 h exposure
# Description: Med. […] A control treated with acetone only was run with each series. Tick and flea susceptibility was evaluated using a modification of the disposable pipette method of Barnard et al. (J. Econ. Entomol., 74:466-69, 1981) and Maupin and […]. Med. […] The inner surface of 2-dram friction cap vials were treated with the compound/acetone solution, or acetone only as a control, and left to air-dry overnight (see also, […] et al., J. Med. […] Three to 4 holes were made in the plastic cap to allow for air exchange. Nymphal ticks and adult fleas were then placed directly into the vials using forceps. […] For each time point, if ticks and fleas were incapable of movement, maintaining normal posture, leg coordination, ability to right themselves, or any signs of life, they were considered moribund or dead.
# Aedes aegypti adults = test: Residual activity, aged treated bottles, mosquitoes; format: in vivo
# Description: as §4
# I. scapularis nymphs = test: Tick bioassay, treated 2-dram vials, probit analysis; format: in vivo, Ixodes scapularis
# Source text: A control treated with acetone only was run with each series.
# For each time point, if ticks and fleas were incapable of movement, maintaining normal posture, leg coordination, ability to right themselves, or any signs of life, they were considered moribund or dead.
# [8] = system: Ixodes scapularis nymphal ticks; test: Tick repellency bioassay; format: in vivo; conditions: listed as Nootkatone (Compound 9)
# Source text: One-hundred (100) μl of test compound was pipetted onto a cotton-tipped applicator mounted to the bottom center of a 1 dram glass shell vial using non-toxic modeling clay. A total of 8 concentrations were screened with doses ranging from 0.04–5.0%. Applicators treated with acetone only served as controls. A line was drawn around the perimeter of the vial immediate to the base of the treated cotton portion of the applicator. The area above the line was designated the “repellent zone”. The vial was allowed to air-dry 1 h before a single tick was introduced. Vials were covered with a single piece of mesh and fitted with a hollowed-out plastic cap to cover the opening of the vial; this prevented the tick from escaping but allowed for air exchange. Vials were breathed upon by investigators at 1 min intervals and a hand was placed over the test vials to provide stimuli for ticks to pass into the repellent zone. […] If the tick crossed over and remained in the “repellent zone” for ≧5 sec, the tick was deemed non-repelled by the test compound. Each test was replicated 10 times using a new tick for each test. Repellent activity was determined at 1, 2, 3, and 4 h after treatment. Probit analysis was used to determine repellent efficacy (RD50 and RD95).
# [9] = 24 h exposure, NE = not effective at concentrations tested
# [10] = Ixodes scapularis nymphal ticks, alone, or 1:1 with carvacrol (in parenthesis)
# [11] = 1 h after compound applied to applicator
# [12] = 4 h after compound applied to applicator
# [13] = Aedes aegypti adult mosquitoes, alone, or 1:1 with carvacrol (in parenthesis)
structure (smiles),measurement,setting,value
"CC1=CCC(O)(C(C)C)CC1 (centres unmarked) [Compound 2, Terpinen-4-ol]",pesticidal activity,[1],no pesticidal activity
"CC(C)=CCc1ccc(O)c(=O)cc1C(C)C [Compound 11, Nootkatin]","X. cheopis adults (5 wk), number killed/number tested",[2],0/5
same,"I. scapularis adults (4 wk), number killed/number tested",[3],0/5
same,"I. scapularis nymphs (72 h), number killed/number tested",[4],0/5
same,Slope,Ae. aegypti adults; 24 h exposure,1.327
"COc1cc(C(C)C)ccc1C [Compound 3, Methyl carvacrol]",pesticidal activity,[1],no pesticidal activity
"C=C(C)[C@@H]1CCC2=CC(=O)C[C@@H](C)[C@]2(C)C1 [Compound 9, Nootkatone]","Slope, residual activity",Ixodes scapularis nymphs; 1 week after treatment,1.304
same,"LC90, residual activity",Ixodes scapularis nymphs; 1 week after treatment,"0.08 percent concentration, wt:vol"
same,"Slope, residual activity",Ixodes scapularis nymphs; 2 weeks after treatment,2.649
same,"LC90, residual activity",Ixodes scapularis nymphs; 2 weeks after treatment,"0.027 percent concentration, wt:vol"
same,residual activity,[5],considerable biological activity through the four week time period
same,LC50 (1 h),[6],6.51 % (wt:vol)
same,LC50 (24 h),[6],1.574 % (wt:vol)
same,LC90 (1 hr),[6],22.644 % (wt:vol)
same,LC90 (24 h),[6],2.757 % (wt:vol)
same,"Slope, residual activity",[7]; 1 week after treatment,1.633
same,"Slope, residual activity",[7]; 2 weeks after treatment,2.571
same,"Slope, residual activity",[7]; 4 weeks after treatment,3.135
same,LC90,X. cheopis adults; NE = not effective at concentrations tested,"0.018 percent concentration, wt:vol"
same,Slope,X. cheopis adults; probit,2.9
same,"LC90, residual activity",Aedes aegypti adults; 1 week after treatment,"0.018 percent concentration, wt:vol"
same,"Slope, residual activity",Aedes aegypti adults; 1 week after treatment,4.336
same,"Slope, residual activity",Aedes aegypti adults; 2 weeks after treatment,4.014
same,"LC90, residual activity","Aedes aegypti adults; 2 weeks after treatment, NE = not effective","0.0088 percent concentration, wt:vol"
same,"Slope, residual activity",Aedes aegypti adults; 4 weeks after treatment,4.169
same,LC90,I. scapularis nymphs; [9],"0.0087 percent concentration, wt:vol"
same,Slope,"I. scapularis nymphs; 24 h exposure, probit",3.061
same,LC50 (1 h),I. scapularis nymphs; [10],0.016 % (wt:vol)
same,LC50 (24 h),I. scapularis nymphs; [10],0.0033 % (wt:vol)
same,LC90 (1 hr),I. scapularis nymphs; [10],0.331 % (wt:vol)
same,LC90 (24 h),I. scapularis nymphs; [10],0.0087 % (wt:vol)
same,LC50 (1 h),"I. scapularis nymphs; Ixodes scapularis nymphal ticks, alone, or 1:1 with carvacrol (in parenthesis), listed as compound 9",0.016 % (wt:vol)
same,Slope (±SEM),[8]; 1 h,1.326 (±0.345)
same,RD50,[8]; [11],0.101 % (wt:vol)
same,RD95,[8]; [11],1.758 % (wt:vol)
same,Slope (±SEM),[8]; 4 h,1.406 (±0.299)
same,RD50,[8]; [12],0.173 % (wt:vol)
same,RD95,[8]; [12],2.561 % (wt:vol)
same,LC90,Ae. aegypti adults; [9],"0.021 percent concentration, wt:vol"
same,Slope,Ae. aegypti adults; 24 h exposure,2.845
same,LC50 (15 min),Ae. aegypti adults; [13],0.136 % (wt:vol)
same,LC50 (24 h),Ae. aegypti adults; [13],0.0075 % (wt:vol)
same,LC90 (15 min),Ae. aegypti adults; [13],0.453 % (wt:vol)
same,LC90 (24 h),Ae. aegypti adults; [13],0.021 % (wt:vol)
